Reference: patent EP4818178A1, “PREPARATION AND USE OF PYRIMIDOTHIOPYRANONE KRAS MUTANT PROTEIN INHIBITOR” (Ya Therapeutics Inc, priority 2024, dated 2025)

Each molecule was assayed against KRasG12D (Homo sapiens, UniProt P01116, G12D) (assay: KRAS inhibitory activity test, TR-FRET (inhibition of binding of KRasG12D to GTP, SOS/GTP nucleotide exchange)). Details: read-out: IC50 values of the compounds for inhibiting KRAS enzymes, G12D.
Format: biochemical
Description: • 1. […] Reagent Preparation: • a. Storage Reagents:
Prepare a 1L solution by mixing 20mL of 1000mM HEPES, 20mL of 500mM EDTA, 10mL of 5M sodium chloride, 0.1mL of 100% Tween 20, and 949.9mL of water. Sterilize by filtration and store at 4°C.
Prepare a 1L solution by mixing 20mL of 1000mM HEPES, 10mL of 1000mM magnesium chloride, 30mL of 5M sodium chloride, 0.05mL of 100% Tween 20, and 939.95mL of water. Sterilize by filtration and store at 4°C. 3) KRAS/Bodipy GDP/Tb-SA Mixture: Mix 9.5 µL of 95 µM KRasG12D protein with 440.5 µL of KRAS nucleotide exchange buffer. Incubate at room temperature for 1 hour. Then, mix with 8.4 µL of 17.9 µM Tb-SA, 1.8 µL of 5 mM Bodipy GDP, and 9539.8 µL of KRAS experimental buffer to prepare […]. After mixing, incubate at room temperature for 6 hours and store at -80°C.
• 1) KRAS Enzyme Solution: Mix 73.3 µL of KRAS/Bodipy GDP/Tb-SA mixture with 2126.7 µL of KRAS experimental buffer to prepare a 2200 µL solution. • 2) SOS/GTP Mixture
c. Experimental Procedure: Mix 1.59 µL of 166 µM SOS protein with 198 µL of 100 mM... GTP and 0.41 µL KRAS buffer were prepared to a 2200 µL solution. The stock solution concentration of the control compound was 1 mM, and the stock solution concentration of the test compound was 10 mM. 9 µL of the control compound and the test compound were transferred to a 384-LDV plate. The compound on the LDV plate was 3-fold diluted 10-point using Bravo. 9 nL of the compound on the LDV plate was transferred to the experimental plate using ECHO. 3 µL of a 3 nM Kras/0.5 nM TB-SA/30 nM BodipyGDP mixture and 3 µL of Ras buffer were added to each well of the experimental plate using a Dragonfly autopilot. The plate was centrifuged at 1000 rpm for 1 minute. The plate was incubated at room temperature for 1 hour. 3 µL of 120 nM SOS/9 mM KRAS buffer was added to each well of the experimental plate using a Dragonfly autopilot. The […] was centrifuged at 1000 rpm for 1 minute; the plate was incubated at room temperature for 1 hour; the plate was read and the data were recorded using Envision; the data were analyzed using Excel and Xlfit to calculate the IC50of the test compound. "++++" indicates IC50≤ 10 nM; "+++" indicates 10 nM < IC50≤ 100 nM; "++" indicates 100 nM < IC50≤ 2000 nM; "+" indicates 2000 nM < IC50.

Molecule | IC50
C=C1CN2CCC[C@@]2(COc2nc3c(c(N4CC5CCC(C4)N5)n2)CS(=O)(=O)[C@H](c2c(F)c(N)cc(C)c2C(F)(F)F)C3)C1 [Compound 11A, (7S)-7-(3-amino-2-fluoro-5-methyl-6-(trifluoromethyl)phenyl)-4-(3,8-diazabicyclo[3. 2.1]octane-3-yl)-2-(((S)-2-(methylene)tetrahydro-1H-pyrrolazin-7a(5H)-yl)methoxy)-7,8-dihydro-5H-thiopyrano[4,3-d]pyrimidine-6,6-dioxide] | ≤ 10 nM
Cc1cc(N)c(F)c([C@@H]2Cc3nc(OC[C@@]45CCCN4C[C@H](F)C5)nc(N4C[C@H]5CC[C@@H](C4)N5)c3CS2(=O)=O)c1C(F)(F)F [Compound 29A, (7S)-7-(3-amino-2-fluoro-5-methyl-6-(trifluoromethyl)phenyl)-4-((1R,5S)-3,8-diazabicyclo[3.2.1]octane-3-yl)-2-(((2R,7AS)-2-fluorotetrahydro-1H-pyrrolazin-7a(5H)-yl)methoxy)-7,8-dihydro-5H-thiopyrano[4,3-d]pyrimidine 6,6-Dioxide] | ≤ 10 nM
CC#Cc1cc(N)cc(C2Cc3nc(OC[C@@]45CCCN4C/C(=C\F)C5)nc(N4CC5CCC(C4)N5)c3CS2(=O)=O)c1C(F)(F)F (stereo partly shown) [Compound 32] | ≤ 10 nM
Cc1cc(N)cc([C@@H]2Cc3nc(OC[C@@]45CCCN4C/C(=C\F)C5)nc(N4CC5CCC(C4)N5)c3CS2(=O)=O)c1C(F)(F)F [Compound 39A] | ≤ 10 nM
C=C1CN2CCC[C@@]2(COc2nc3c(c(N4CC5CCC(C4)N5)n2)CS(=O)(=O)C(c2c(F)c(N)cc(C#CC)c2C(F)(F)F)C3)C1 (stereo partly drawn) [Compound 22, 7-(3-amino-2-fluoro-5-(prop-1-yn-1-yl)-6-(trifluoromethyl)phenyl)-4-(3,8-diazabicyclo[3.2.1]octane-3-yl)-2-(((S)-2-(methylene)tetrahydro-1H-pyrrolazin-7a(5H)-yl)methoxy)-7,8-dihydro-5H-thiopyrano[4,3-d]pyrimidine-6,6-dioxide] | ≤ 10 nM
Cc1cc(O)nc([C@@H]2Cc3nc(OC[C@@]45CCCN4C[C@H](F)C5)nc(N4C[C@H]5CC[C@@H](C4)N5)c3CS2(=O)=O)c1C(F)(F)F [Compound 4A, (7S)-4-((1R,5S)-3,8-diazabicyclo[3.2.1]octane-3-yl)-2-(((2R,7AS)-2-fluorotetrahydro-1H-pyrrolazin-7a(5H)-yl)methoxy)-7-(6-hydroxy-4-methyl-3-(trifluoromethyl)pyridin-2-yl)-7,8-dihydro-5H-thiopyrano[4,3-d]pyrimidine-6,6-dioxide] | ≤ 10 nM
Cc1cc(O)c(F)c([C@@H]2Cc3nc(OC[C@@]45CCCN4C[C@H](F)C5)nc(N4CCC[C@@](C)(O)C4)c3CS2(=O)=O)c1C(F)(F)F [Compound 6A, (7S)-7-(2-fluoro-3-hydroxy-5-methyl-6-(trifluoromethyl)phenyl)-2-(((2R,7AS)-2-fluorotetrahydro-1H-pyrrolazin-7a(5H)-yl)methoxy)-4-((R)-3-hydroxy-3-methylpiperidin-1-yl)-7,8-dihydro-5H-thiopyrano[4,3-d]pyrimidine-6,6-dioxide] | ≤ 10 nM
CC#Cc1cc(N)cc(C2Cc3nc(OC[C@@]45CCCN4CC(=C(F)F)C5)nc(N4CC5CCC(C4)N5)c3CS2(=O)=O)c1C(F)(F)F (stereo partly shown) [Compound 31] | ≤ 10 nM
Cc1cc(N)c(F)c([C@@H]2Cc3nc(OC[C@@]45CCCN4C[C@H](F)C5)nc(N4C[C@H]5CC[C@@H](C4)N5)c3CS2(=O)=O)c1C(F)(F)F [Compound 34A, (7S)-7-(3-amino-2-fluoro-5-methyl-6-(trifluoromethyl)phenyl)-4-((1R,5S)-3,8-diazabicyclo[3.2.1]octane-3-yl)-2-(((2R,7AS)-2-fluorotetrahydro-1H-pyrrolazin-7a(5H)-yl)methoxy)-7,8-dihydro-5H-thiopyrano[4,3-d]pyrimidine 6,6-Dioxide] | ≤ 10 nM
Cc1cc(N)c(F)c([C@@H]2Cc3nc(OC[C@@]45CCCN4C[C@H](F)C5)nc(N4CCC[C@@](C)(O)C4)c3CS2(=O)=O)c1C(F)(F)F [Compound 5A, (7S)-7-(3-amino-2-fluoro-5-methyl-6-(trifluoromethyl)phenyl)-2-(((2R,7AS)-2-fluorotetrahydro-1H-pyrrolazin-7a(5H)-yl)methoxy)-4-((R)-3-hydroxy-3-methylpiperidin-1-yl)-7,8-dihydro-5H-thiopyrano[4,3-d]pyrimidine-6,6-dioxide] | 10 to 100 nM
(7S)-7-(6-amino-4-methyl-3-(trifluoromethyl)pyridin-2-yl)-2-(((2R,7AS)-2-fluorotetr ahydro-1H-pyrrolazin-7a(5H)-yl)methoxy)-4-((R)-3-hydroxy-3-methylpiperidin-1-yl) -7,8-dihydro-5H-thiopyrano[4,3-d]pyrimidine-6,6-dioxide [Compound 8A] | ≤ 10 nM
Cc1cc(N)c(F)c([C@@H]2Cc3nc(OC[C@@]45CCCN4CC(=C(F)F)C5)nc(N4CC5CCC(C4)N5)c3CS2(=O)=O)c1C(F)(F)F [Compound 9A, (7S)-7-(3-amino-2-fluoro-5-methyl-6-(trifluoromethyl)phenyl)-4-(3,8-diazabicyclo[3. 2.1]octane-3-yl)-2-(((S)-2-(difluoromethylene)tetrahydro-1H-pyrrolazin-7a(5H)-yl)methoxy)-7,8-dihydro-5H-thiopyrano[4,3-d]pyrimidine-6,6-dioxide] | ≤ 10 nM
C=C1CN2CCC[C@@]2(COc2nc3c(c(N4CC5CCC(C4)N5)n2)CS(=O)(=O)C(c2cc(N)cc(C)c2C(F)(F)F)C3)C1 (stereo partly shown) [Compound 38] | ≤ 10 nM
7-(3-amino-2-fluoro-5-methyl-6-(trifluoromethyl)phenyl)-4-(1R,5S)-3,8-diazabicyclo [3.2.1]octane-3-yl)-2-(((2R,7AS)-2-fluorotetrahydro-1H-pyrrolazin-7a(5H)-yl)methox y)-7,8-dihydro-5H-thiopyrano[4,3-d]pyrimidine-6,6-dioxide [Compound 30] | ≤ 10 nM
Cc1cc(N)cc(C2Cc3nc(OC[C@@]45CCCN4CC(=C(F)F)C5)nc(N4CC5CCC(C4)N5)c3CS2(=O)=O)c1C(F)(F)F (stereo partly shown) [Compound 40] | ≤ 10 nM
Cc1cc(N)c(F)c([C@@H]2Cc3nc(OC[C@@]45CCCN4C[C@H](F)C5)nc(N4C[C@H]5CC[C@@H](C4)N5)c3CS2(=O)=O)c1C(F)(F)F [Compound 30A, (7S)-7-(3-amino-2-fluoro-5-methyl-6-(trifluoromethyl)phenyl)-4-((1R,5S)-3,8-diazabicyclo[3.2.1]octane-3-yl)-2-(((2R,7AS)-2-fluorotetrahydro-1H-pyrrolazin-7a(5H)-yl)methoxy)-7,8-dihydro-5H-thiopyrano[4,3-d]pyrimidine 6,6-Dioxide] | ≤ 10 nM
Cc1cc(O)c(F)c([C@H]2Cc3nc(OC[C@@]45CCCN4C[C@H](F)C5)nc(N4C[C@H]5CC[C@@H](C4)N5)c3CS2(=O)=O)c1C(F)(F)F [Compound 2B, (7R)-4-((1R,5S)-3,8-diazabicyclo[3.2.1]octane-3-yl)-7-(2-fluoro-3-hydroxy-5-methyl-6-(trifluoromethyl)phenyl)-2-(((2R,7AS)-2-fluorotetrahydro-1H-pyrrolazin-7a(5H)-yl)methoxy)-7,8-dihydro-5H-thiopyrano[4,3-d]pyrimidine-6,6-dioxide] | ≤ 10 nM
CC#Cc1cc(N)c(F)c([C@@H]2Cc3nc(OC[C@@]45CCCN4C/C(=C\F)C5)nc(N4CC5CCC(C4)N5)c3CS2(=O)=O)c1C(F)(F)F [Compound 24A, (7S)-7-(3-amino-2-fluoro-5-(prop-1-yn-1-yl)-6-(trifluoromethyl)phenyl)-4-(3,8-diazabicyclo[3.2.1]octane-3-yl)-2-(((S)-2-(fluoromethylene)tetrahydro-1H-pyrrolazin-7a(5 H)-yl)methoxy)-7,8-dihydro-5H-thiopyrano[4,3-d]pyrimidine-6,6-dioxide] | ≤ 10 nM
Cc1cc(N)nc([C@@H]2Cc3nc(OC[C@@]45CCCN4C[C@H](F)C5)nc(N4C[C@H]5CC[C@@H](C4)N5)c3CS2(=O)=O)c1C(F)(F)F [Compound 3A, (7S)-7-(6-amino-4-methyl-3-(trifluoromethyl)pyridin-2-yl)-4-((1R,5S)-3,8-diazabicyclo[3.2.1]octane-3-yl)-2-(((2R,7AS)-2-fluorotetrahydro-1H-pyrrolazin-7a(5H)-yl)methoxy)-7,8-dihydro-5H-thiopyrano[4,3-d]pyrimidine 6,6-Dioxide] | 10 to 100 nM
